Laboratory results published in patent US5190923A, “Peptide compounds containing a cyclic amide structure” (Adir Et Compagnie, priority 1990, dated 1993).

How the values were obtained:
Assay type in all cases: in vivo
[1] = system: oxotremorine-induced tremor; experiment: Oxotremorine-induced tremor in mice; details: for minimal active dose (potentiation of tremor): IP
Protocol: Administered at a dose of 0.5 mg/kg IP, oxotremorine, a non-selective M1 -M2 muscarinic agonist leads to cholinergic symptoms of central origin, such as tremor. In control animals, the maximum tremor-inducing effect is observed after 15 minutes, and this effect disappears completely in the course of 45 to 60 minutes.
The administration of TRH (10 mg/kg IP) 30 minutes before that of oxotremorine potentiates the tremor (+50%) at its peak of intensity (15 minutes), but prolongs it to only a very small extent (15 minutes:+20%). The minimal active dose is 5 mg/kg.
Under the same conditions, the compounds of the invention also exert the same potentiating effect, but at much lower minimal active doses, and this effect persists for a further 60 minutes after the injection of oxotremorine. Thus, the minimal active doses are, for example, as follows: […]

[2] = system: xylazine-induced loss of righting reflex; experiment: Xylazine induced inhibition of the righting reflex in rats; details: IP
Protocol: The administration of a central α2 agonist, xylazine, to rats leads to loss of the animal's righting reflex. This effect is antagonized by yohimbine (α2 antagonist) and by agents facilitating noradrenaline release.
TRH antagonizes the effect of xylazine, and the median effective dose is close to 10 mg/kg IP. Under the same conditions, the ED50 of the compounds of Examples 1 and 5 are 0.1 and 0.3 mg/kg, respectively.

[3] = system: sodium-dependent choline uptake (HACU); experiment: Cholinergic deficit induced by barbiturate narcosis in mice (hippocampal HACU); details: mouse hippocampus
[4] = 30 minutes before oxotremorine 0.5 mg/kg IP

Compound | potentiation of the tremor at its peak of intensity (15 minutes) ([1]; 10 mg/kg IP, 30 minutes before oxotremorine 0.5 mg/kg IP) | prolongation of the tremor ([1]; 10 mg/kg IP, 30 minutes before oxotremorine, printed time 15 minutes) | minimal active dose (potentiation of tremor) [1, 4] [mg/kg] | potentiation of the tremor measured at the peak ([1]; administered 60 minutes before the muscarinic agonist) | median effective dose (ED50), antagonism of the effect of xylazine [2] [mg/kg] | counteraction of the fall in HACU ([3]; 10 mg/kg IP, administered 30 minutes before pentobarbital) [%] | counteraction of the fall in HACU ([3]; 10 mg/kg IP, administered simultaneously with pentobarbital (60 mg/kg IP)) [%] | counteraction of the fall in HACU ([3]; 30 mg/kg IP, administered 30 minutes before pentobarbital) | counteraction of the fall in HACU ([3]; 1 mg/kg IP, administered 30 minutes before induction of narcosis) [%] | counteraction of the fall in HACU ([3]; 3 mg/kg IP, administered 30 minutes before induction of narcosis) [%]
NC(=O)[C@@H]1CCCN1C(=O)[C@H](Cc1cnc[nH]1)NC(=O)[C@@H]1CCC(=O)N1 [TRH] | +50% | +20% | 5 | no longer potentiates the tremor | ~10 | -1.9 | -35 | +4.8% |  | 
AZEP-(S)(N.tau.-Me)His-(1S,3S,4R)ABH-NH2 [Example 1] |  |  | 0.3 |  | 0.1 |  |  |  | -25.5 | -61.1
